# Reference: US8722720B2, “Imidazole derivatives as IDO inhibitors” (NewLink Genetics Corporation, priority 2010, dated 2014)
# Molecular target: T1, purified human IDO protein (Homo sapiens, UniProt P14902)
# T1 construct: 2 extra amino acids (linker from the BglII cloning site of pQE70); made in house; host or cells: E. coli M15(pREP4) with plasmid pQE70-hIDO
# Experiment: Enzymatic IDO assay (kynurenine production, absorbance at 480 nm)
# Type: biochemical
# Conditions: hIDO IC50, recombinant human IDO; values reported in ranges
# Description: The inhibitors were initially diluted in DMSO at 100 mM and were diluted in potassium phosphate 50 mM, added to the reaction mixture at final concentrations raging from 1 mM to 5 nM and preincubated with the enzyme for 5 min at 25° C. The reaction was started by addition of L-tryptophan to 200 μM and incubated 15 min at 37° C. The reaction was stopped by addition of 0.5 vol of 30% trichloroacetic acid and incubated 30 min at 60° C. to hydrolyze N-formylkynurenine to kynurenine. The reaction was centrifuged at 3400 g for 5 min to remove precipitated protein and the supernatant was reacted with 2% (w/v) of p-dimethylaminobenzaldehyde in acetic acid. The reaction was incubated 10 min at 25° C. and read at 480 nm in a spectrophotometer. […] Nonlinear regressions and determination of the IC50 values were performed using the GraphPad Prism 4 software.
# T1 sequence (P14902 whole entry P110S/E119G): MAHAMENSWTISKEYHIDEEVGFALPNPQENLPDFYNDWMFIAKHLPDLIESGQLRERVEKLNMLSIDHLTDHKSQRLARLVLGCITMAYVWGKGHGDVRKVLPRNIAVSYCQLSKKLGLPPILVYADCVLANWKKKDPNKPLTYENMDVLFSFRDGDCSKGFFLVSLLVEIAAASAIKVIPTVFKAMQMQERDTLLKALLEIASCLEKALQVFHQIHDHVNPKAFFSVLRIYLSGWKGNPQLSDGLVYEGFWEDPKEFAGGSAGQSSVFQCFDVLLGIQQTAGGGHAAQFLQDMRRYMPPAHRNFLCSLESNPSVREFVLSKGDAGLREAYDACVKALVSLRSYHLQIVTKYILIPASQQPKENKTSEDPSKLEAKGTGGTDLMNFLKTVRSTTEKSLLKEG
row,SMILES,IC50 [µM]
1,"CC(=O)OCCN(C)C(=O)Oc1ccc(Cl)cc1-c1c[nH]cn1 [compound 1253, 2-(((4-chloro-2-(1H-imidazol-4-yl)phenoxy)carbonyl)(methyl)amino)ethyl acetate]",> 100

# Same assay, conditions: recombinant human IDO; values reported in ranges; read-out: hIDO IC50
row,SMILES,IC50 [µM]
1,"c1cnc2c(-c3c[nH]cn3)cccc2c1 [compound 952, 8-(1H-imidazol-4-yl)quinoline]",> 100
2,"Oc1c(Cl)cc(Cl)c(OCCc2ccccc2Cl)c1-c1cnc[nH]1 [compound 1111, 4,6-dichloro-3-(2-chlorophenethoxy)-2-(1H-imidazol-5-yl)phenol]",10 to 100
3,"Nc1ccc(CC(=O)Nc2ccc(CCOc3ccccc3-c3c[nH]cn3)cc2)cc1 [compound 1250, N-(4-(2-(2-(1H-imidazol-4-yl)phenoxy)ethyl)phenyl)-2-(4-aminophenyl)acetamide]",1 to 10
4,"c1ccc(-c2cncn2-c2ccccc2)cc1 [compound 1108, 1,5-diphenyl-1H-imidazole]",10 to 100
5,"NC1CCCCC1NC(=O)Nc1ccc(CCOc2ccccc2-c2c[nH]cn2)cc1 (stereo not shown) [compound 1216, 1-(4-(2-(2-(1H-imidazol-4-yl)phenoxy)ethyl)phenyl)-3-(2-aminocyclohexyl)urea]",1 to 10
6,"CC(C)(C)CC(=O)Nc1ccc(CCOc2ccccc2-c2c[nH]cn2)cc1 [compound 1103, N-(4-(2-(2-(1H-imidazol-4-yl)phenoxy)ethyl)phenyl)-3,3-dimethylbutanamide]",1 to 10
7,"O=S(=O)(Cc1ccccc1)Nc1ccc(CCOc2ccccc2-c2c[nH]cn2)cc1 [compound 1151, N-(4-(2-(2-(1H-imidazol-4-yl)phenoxy)ethyl)phenyl)-1-phenylmethanesulfonamide]",1 to 10
8,"NC(CCc1ccccc1-c1c[nH]cn1)C(=O)O (stereo not shown) [compound 1050, lithium 4-(2-(1H-imidazol-4-yl)phenyl)-2-amino-butanoate]",> 100
9,"c1cc(-c2c[nH]cn2)c2[nH]ccc2c1 [compound 948, 7-(1H-imidazol-4-yl)-1H-indole]",10 to 100
10,"Oc1c(-c2cnc[nH]2)[nH]c2ccccc12 [compound 1048, 2-(1H-imidazol-5-yl)-1H-indol-3-ol]",> 100
11,"c1ccc(-c2c[nH]cn2)c(OCCc2csc3ccccc23)c1 [compound 1202, 4-(2-(2-(benzo[b]thiophen-3-yl)ethoxy)phenyl)-1H-imidazole]",10 to 100
12,"O=C(c1cccs1)N1CCC(CCOc2ccccc2-c2c[nH]cn2)CC1 [compound 1165, (4-(2-(2-(1H-imidazol-4-yl)phenoxy)ethyl)piperidin-1-yl)(thiophen-2-yl)methanone]",1 to 10
13,"O=C(O)CCSc1nc(-c2ccccc2)c(-c2ccccc2)[nH]1 [compound 1079, 3-(4,5-diphenyl-1H-imidazol-2-ylthio)propanoic acid]",> 100
14,"C=C(COc1ccccc1-c1c[nH]cn1)c1coc2ccccc12 [compound 1030, 4-(2-(2-(benzofuran-3-yl)allyloxy)phenyl)-1H-imidazole]",1 to 10
15,"c1ccc(-c2c[nH]cn2)c(OCc2cscn2)c1 [compound 1289, 4-((2-(1H-imidazol-4-yl)phenoxy)methyl) thiazole]",10 to 100
16,"C=CCn1cncc1-c1ccccc1 [compound 1131, 1-allyl-5-phenyl-1H-imidazole]",> 100
17,"CCOC(=O)c1ccc(COc2ccccc2-c2c[nH]cn2)cc1 [compound 1029, ethyl 4-((2-(1H-imidazol-4-yl)phenoxy)methyl) benzoate]",10 to 100

# Continued, values first:
row,IC50 [µM],SMILES
1,10 to 100,"CN(C)c1ccc(CCOc2ccccc2-c2c[nH]cn2)cc1 [compound 1181, 4-(2-(2-(1H-imidazol-4-yl)phenoxy)ethyl)-N,N-dimethylaniline]"
2,> 100,"CC1Cn2cncc2-c2ccccc21 (stereo not shown) [compound 1137, 6-methyl-5,6-dihydroimidazo[5,1-a]isoquino-line]"
3,1 to 10,"O=C(O)c1ccc(C(=O)Nc2ccc(CCOc3ccccc3-c3c[nH]cn3)cc2)cc1 [compound 1270, 4-((4-(2-(2-(1H-imidazol-4-yl)phenoxy)ethyl)phenyl)carbamoyl)benzoic acid]"
4,< 1,"O=C(Nc1ccccc1)Nc1ccc(CCOc2ccccc2-c2c[nH]cn2)c(Cl)c1 [compound 1347, 1-(4-(2-(2-(1H-imidazol-4-yl)phenoxy)ethyl)-3-chlorophenyl)-3-phenylurea]"
5,10 to 100,"Fc1cccc(-c2c[nH]cn2)c1OCCc1ccccc1Cl [compound 1296, 4-(2-(2-chlorophenethoxy)-3-fluorophenyl)-1H-imidazole]"
6,10 to 100,"CCOC(=O)Oc1ccc(Br)cc1-c1cn(C(=O)OCC)cn1 [compound 1036, ethyl 4-(5-bromo-2-(ethoxycarbonyloxy)phenyl)-1H-imidazole-1-carboxylate]"
7,1 to 10,"Oc1cccc(OCCc2ccc(Cl)cc2)c1-c1cnc[nH]1 [compound 1148, 3-(4-chlorophenethoxy)-2-(1H-imidazol-5-yl) phenol]"
8,1 to 10,"O=C(Nc1ccc(CCOc2ccccc2-c2c[nH]cn2)c(Cl)c1)C1CCCCN1 (stereo not shown) [compound 1344, N-(4-(2-(2-(1H-imidazol-4-yl)phenoxy)ethyl)-3-chlorophenyl)piperidine-2-carboxamide]"
9,1 to 10,"O=C(COc1ccccc1-c1c[nH]cn1)c1ccc2ccsc2c1 [compound 1018, 2-(2-(1H-imidazol-4-yl)phenoxy)-1-(benzo[b]thiophen-6-yl)ethanone]"
10,> 100,"c1ccc2c(-c3c[nH]cn3)cncc2c1 [compound 1004, 4-(1H-imidazol-4-yl)isoquinoline]"
11,10 to 100,"Oc1c(-c2cnc[nH]2)ccc(F)c1Cl [compound 1129, 2-chloro-3-fluoro-6-(1H-imidazol-5-yl)phenol]"
12,10 to 100,"CC(Oc1ccccc1-c1c[nH]cn1)c1ccc(Cl)cc1 (stereo not shown) [compound 1024, 4-(2-(1-(4-chlorophenyl)ethoxy)phenyl)-1H-imidazole]"
13,1 to 10,"O=C(Cn1ccnc1)Nc1ccc(CCOc2ccccc2-c2c[nH]cn2)cc1 [compound 1217, N-(4-(2-(2-(1H-imidazol-4-yl)phenoxy)ethyl)phenyl)-2-(1H-imidazol-1-yl)acetamide]"
14,< 1,"O=C(CC1CCOCC1)Nc1ccc(CCOc2ccccc2-c2c[nH]cn2)c(C(F)(F)F)c1 [compound 1305, N-(4-(2-(2-(1H-imidazol-4-yl)phenoxy)ethyl)-3-(trifluoromethyl)phenyl)-2-(tetrahydro-2H-pyran-4-yl)acetamide]"
15,< 1,"O=C(Cc1ccc([N+](=O)[O-])cc1)Nc1ccc(CCOc2ccccc2-c2c[nH]cn2)cc1 [compound 1247, N-(4-(2-(2-(1H-imidazol-4-yl)phenoxy)ethyl)phenyl)-2-(4-nitrophenyl)acetamide]"
16,10 to 100,"Oc1ccc(Cl)cc1-c1cncn1-c1cccnc1 [compound 1122, 4-chloro-2-(1-(pyridin-3-yl)-1H-imidazol-5-yl)phenol]"
17,> 100,"c1nc(-c2ccc3[nH]ccc3c2)c[nH]1 [compound 949, 5-(1H-imidazol-4-yl)-1H-indole]"
18,< 1,"NC(C(=O)Nc1ccc(CCOc2ccccc2-c2c[nH]cn2)c(Cl)c1)C1CCOCC1 (stereo not shown) [compound 1333, N-(4-(2-(2-(1H-imidazol-4-yl)phenoxy)ethyl)-3-chlorophenyl)-2-amino-2-(tetrahydro-2H-pyran-4-yl)acetamide]"
19,1 to 10,"Clc1cccc(-c2cnc[nH]2)c1OCCC1CCCCC1 [compound 1177, 5-(3-chloro-2-(2-cyclohexylethoxy)phenyl)-1H-imidazole]"
